From US20260263638A1, “COMPOSITIONS AND METHODS TO IMPROVE RNA PROPERTIES USING BASE, PHOSPHODIESTER LINKAGE, SUGAR BACKBONE, AND CAP MODIFICATIONS” (The Broad Institute, Inc., priority 2023, published 2026)
Entries after “also recorded” stand apart in the source; their conditions may differ. Strand notation (5' to 3'): a small letter for the sugar, then the base; units joined by * are phosphorothioate-linked, units joined directly phosphodiester-linked; [ ] holds rarer units or linkages, { } end groups; capitals alone tell only the bases. [5OctU] = 5-octadiynyl-2'-deoxyuridine, alkyne click handle; d = 2'-deoxy (DNA); {3P} = phosphate; r = 2'-OH (RNA); {P} = phosphate

Columns and labels:
[1] = tested on: rabbit reticulocyte lysate (RRL) in vitro translation system; experiment: In vitro translation assay in rabbit reticulocyte lysate with or without 4EGI-1; assay type: biochemical
Experimental: Firefly luciferase reporter mRNA with one cap and Nanoluc mRNA with two caps were synthesized according to protocol mentioned above. The in vitro translation was conducted using Rabbit Reticulocyte Lysate (Nuclease-treated) [Promega, L4960] according to manufacturer's protocol with some modifications. 30% or 40% of rabbit reticulocyte lysate, 4% of SUPERaseIn RNase Inhibitor, amino acid mixture and indicated mRNA were added to the reaction with 4EGI-1 inhibitor (600 μM) or DMSO as control in 50 μL reaction. The reactions were incubated at 30° C. for an hour. Then, […] of the reaction mixture was diluted by 10-fold with PBS. The fluorescence of firefly luciferase was measured with Dual-Glo Luciferase Assay System [Promega, E2920] and the fluorescence of Nanoluc was measured with Nano-Glo Luciferase Assay System [Promega, N1110] according to manufacturer's protocol.

HeLa cells [2] = experiment: NLuc bioluminometry of circRNA/QRNA (Fluc transfection control); assay type: cell-based
Experimental: (§1) Synthetic linear mRNA encoding NanoLuciferase (NLuc) was prepared from DNA template by IVT with 100% m1ψ substitution. The triphosphorylated mRNA after IVT was then treated with Calf Intestinal Alkaline Phosphatase (CIAP) to yield 5′/3′-hydroxyl mRNA. A chemically synthesized oligonucleotide with a branched m7G cap and 5′/3′-phosphates was then ligated to the 5′/3′-hydroxyl mRNA by T4 RNA ligase, which ligates the 5′-phosphate on the oligo and 3′-hydroxyl of the mRNA. The ligation product was then further treated with RtcB ligase, which ligates the 5′-hydroxyl and 3′-phosphate ends to enable intramolecular circularization. […] Using one primer only produced no fragmentation but only linearization, confirming successful circularization. Using double primers produced fragments flanking the branched region, where branched topology was confirmed by gel shift. […] NLuc bioluminometry was measured 8 hrs post transfection and normalized Firefly luciferase as transfection control. Mean±s.e.m., n=3. P values were calculated by ordinary one-way ANOVA (alpha=0.05), with multiple comparisons to circ-NLuc with only 5-octadiynyl deoxyuridine (OU) handle (construct 45). ****P<0.0001, n.s. P>0.05. […] QRNA with m7G (construct 48) was compared. n=3, biological replicates. Mean±sem. P values were calculated by ordinary one-way ANOVA with multiple comparisons against construct 61 without any cotransfected capped oligos (Dunnett's multiple comparison test). […] P values were calculated by unpaired two-sided t-test.
HeLa cells [ATCC, CCL-2] were maintained in DMEM culture media [ThermoFisher Scientific, 119951] containing 10% FBS and 1% penicillin-streptomycin [ThermoFisher Scientific, 15070063] in a 37° C. incubator with 5% CO2 and passaged at a ratio of 1:10 every 3 days. […] Cells were lysed and luciferase activity was measured using the Promega Dual Glo Luciferase Assay System [Promega, E2920]. Firefly luminescence/Renilla luminescence for each well was used as mRNA activity readout. […]

[3] = In vivo imaging of NanoLuc after retro-orbital mRNA-LNP injection; settings: mice; for NLuc translation of QRNA relative to uncapped m1ψ-circRNA precursor (circRNA-OU): LNP retro-orbital
Experimental: All animal procedures followed animal care guidelines approved by the Institutional Animal Care and Use Committee (IACUC) of the Broad Institute of MIT and Harvard under animal protocol #0255-08-19. Animal experiments were conducted in compliance with IACUC policies and NIH guidelines. The BALB/cj (male, 6~8 weeks old) mice used for in vivo NanoLuc assay in this study were purchased from The Jackson Laboratory (JAX). The C57BL/6 mice (female, 7 weeks old), used for hEPO assay in this study were purchased from The Jackson Laboratory (JAX).
mRNA diluted in 50 mM citrate buffer (pH 4) and lipid mix (37.5 mM in ethanol) containing 50 mol % SM-102, 10 mol % DSPC, 38.5 mol % Cholesterol, and 1.5 mol % DMG-PEG2000 were assembled into LNP using a NanoAssemblr Spark instrument [Precision Nanosystems]. Upon formulation, mRNA-LNPs were diluted in 12 mL 1×PBS solution and the buffer was exchanged by concentrating with a 30 kDa spin filter [MilliporeSigma, UFC901008] to remove residue ethanol. Concentrations and encapsulation efficiency of mRNA were determined using Quant-it RiboGreen RNA Assay Kit [ThermoFisher, R11490]. 1 μg NanoLuc or hEPO mRNA-LNP in a total volume of 100 μL was injected through retro orbital injection into each mouse. Four mice were used for each condition of each experiment (NanoLuc imaging, hEPO ELISA, and reticulocyte counting). For NanoLuc imaging, PBS injection was used as negative control. For hEPO/reticulocyte experiments, poly(C)-LNP complex was used as negative control.
In vivo activity of NanoLuc was measured using a Competent IVIS-Perkin Elmer IVIS Spectrum CT System [Perkin Elmer]. At each time point, mice were anesthetized with isoflurane. The fluorofurimazine substrate with poloxamer-407 [Promega, CS320501] was freshly reconstituted in PBS to a final concentration of ~5.1 mM and injected intraperitoneally (i.p.) into the mice at a dose of ~22 nmol per gram body weight. Mice were imaged 5 mins post injection using auto exposure settings. The luminescent activity was quantified using Aura 4.0 imaging software. The background was determined by including mice injected with poly C-LNP negative control and subtracted from each measurement.

HeLa cells [4] = experiment: Two-ORF FLuc/3xHiBiT reporter bioluminometry; assay type: cell-based; settings: 8 hrs post transfection
Experimental: as §1
Finally, Applicant evaluated if the branched cap on the QRNA has the ability to initiate translation of open reading frames (ORFs) upstream of it. […] FLuc and HiBiT bioluminometry were evaluated 8 hrs post transfection.
Lastly, to test whether the branched cap could drive the translation for upstream AUG via either proximity looping or bidirectional ribosome scanning to opt for upstream open reading frames (ORFs), Applicant generated a two-ORF reporter mRNA that contained a 5′ full-length FLuc ORF and a 3′ 3×HiBIT ORF with an out-of-frame start codon from the FLuc ORF (construct 62). […]

eIF4E = eIF4E (UniProt P06730 P06730:1-217); experiment: EMSA; 50 mM KCl, 10 mM Tris-HCl pH 7.6, 1 mM DTT, 4 C; settings: tags: His tag, Cayman Chemical 25150
Experimental: Capped oligonucleotides were labeled on the 3′ end using AF647 labeled cytidine-5′-phosphate-3′-(6-aminohexyl) phosphate [Jena Bioscience, NU-1706-AF647] and T4 RNA ligase ligated AF647-labeled cytidine onto the capped oligos using manufacturer's protocols. Oligos were then incubated in the binding buffer (1 mM DTT, 50 mM KCl, 10 mM Tris-HCl (pH 7.6), Novex Hi-Density TBE Sample Buffer [Invitrogen, LC6678]) with varying eIF4E-His [Cayman Chemical Inc, 25150] concentrations prepared by sequential dilutions from the stock solution. The oligos and […] were incubated at 4° C. for 30 mins and characterized by EMSA with Novex TBE Gels, 4-20% [Invitrogen, EC6225BOX] at 4° C. AF647 labeled oligos were imaged with BioRad ChemiDoc MP Imaging System [12003154] and band intensities were quantified using ImageJ. For Kd calculation, the proportions of bound were plotted against eIF4E concentration using GraphPad Prism (Specific binding with Hill slope).
To gain insights into the mechanism of how the topologically branched internal cap initiates mRNA translation, Applicant used fluorophore-labeled mono- or dual-capped oligonucleotides and measured their affinity to eIF4E through EMSA.

eIF4E, sequence (P06730 whole entry, one chain of several): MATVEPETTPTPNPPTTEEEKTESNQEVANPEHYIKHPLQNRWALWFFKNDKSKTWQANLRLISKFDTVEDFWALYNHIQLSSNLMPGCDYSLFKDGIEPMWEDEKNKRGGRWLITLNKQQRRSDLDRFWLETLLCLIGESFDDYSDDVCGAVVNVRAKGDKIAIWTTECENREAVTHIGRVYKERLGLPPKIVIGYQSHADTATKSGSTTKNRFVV

O=C(O)C(Cc1ccccc1[N+](=O)[O-])=NNc1nc(-c2ccc(Cl)c(Cl)c2)cs1 (mixture of isomers) [4EGI-1]
Translation of mono- and dual-capped mRNA in RRL ([1]; 600 μM 4EGI-1 coupled with reduction of RRL % to 30%): almost completely halted translation
Translation of mono- and dual-capped mRNA in RRL in presence of 4EGI-1 ([1]; 4EGI-1 600 μM or DMSO): inhibited translation of dual-capped mRNA; also recorded: significantly reduced

construct 49: m1ψ NLuc QRNA with LNAm7G branched cap (SEQ ID NO: 115) ({P}-rArArArArArArAd[5OctU]rArArArArArA-{3P}; ligated into m1Ψ circRNA, LNA-m7G-capped LNA/2'-OMe branch oligo clicked at octadiynyl-dU)
NLuc protein production increase of modified circRNA/QRNA (HeLa cells [2]; HeLa cells, 8 hrs post transfection, compared to circ-NLuc with only OU handle (construct 45)): up to 144 fold
NLuc translation of QRNA relative to uncapped m1ψ-circRNA precursor (circRNA-OU) ([3]; 8 hrs): 17 ×
NLuc translation of QRNA relative to uncapped m1ψ-circRNA precursor (circRNA-OU) ([3]; 24 hrs): 30 ×
NLuc translation of QRNA relative to uncapped m1ψ-circRNA precursor (circRNA-OU) ([3]; 48 hrs): 59 ×
Time of peak NLuc bioluminescence / translation in vivo ([3]; LNP, retro-orbital injection): 24 h

construct 64: two-ORF FLuc-3×HiBiT QRNA with LNAm7G branched cap (SEQ ID NO: 119) ({P}-rArArArArArArAd[5OctU]rArArArArArA-{3P}; ligated into circRNA, LNA-m7G-capped LNA/2'-OMe branch oligo clicked at octadiynyl-dU, further chemistry not fully specified)
FLuc ORF expression, QRNA vs circRNA (uncapped control) (HeLa cells [4]): 166 fold
HiBiT ORF expression, QRNA vs circRNA (uncapped control) (HeLa cells [4]): 18.7 fold
Translation of upstream HiBiT and downstream FLuc ORFs, result in words (HeLa cells [4]): both the HiBiT and FLuc ORFs were enhanced

B1: construct S19: Bn7G-capped Nluc QRNA with globin UTRs, TGT/preQ1-azide labeled, uridine-containing (SEQ ID NO: 133) (nucleic acid)
chain: UAGUCUCGAGCUGGUACUGCAUGCACGCAAUGCUAGCUGCCCCUUUCCCGUCCUGGGUACCCCGAGUCUCCCCCGACCUCGGGUCCCAGGUAUGCUCCCACCUCCACCUGCCCCACUCACCACCUCUGCUAGUUCCAGACACCUCCCAAGCACGCAGCAAUGCAGCUCAAAACGCUUAGCCUAGCCACACCCCCACGGGAAACAGCAGUGAUUAACCUUUAGCAAUAAACGAAAGUUUAACUAAGCUAUACUAACCCCAGGGUUGGUCAAUUUCGUGCCAGCCACACCCUGGAGCUAGCAAAAAAAAAAAAAAAAAAAAAAAAAAAAAAAAAAAAAAACUCAGUAGAUGUUUUCUUGGGUUAAUUGAGGCCUGAGUAUAAGGUGACUUAUACUUGUAAUCUAUCUAAACGGGGAACCUCUCUAGUAGACAAUCCCGUGCUAAAUUGUAGGACUGCCCUUUAAUAAAUACUUCUAUAUUUAAAGAGGUAUUUAUGAAAAGCGGAAUUUAUCAGAUUAAAAAUACUUUCUCUAGAGUCGACCUGCAG
modifications: Bn7G cap; TGT/preQ1-azide label
Nluc translation of QRNA vs circRNA, result in words (HeLa cells [2]; circRNA with and without IRES, uridine-containing): translated much more efficiently than its circRNA counterpart

AGAUAAAUAAAAAA (ssRNA, 5' m7G cap; 5-octadiynyl-dU at position 8) [1xm7G-OU (28)]
Kd (eIF4E; label: 3' AF647-cytidine): 2.21 µM

B2: 2xLNAm7G dual-capped branched (42) (ssRNA)
RNA 1: AGAUAAAUAAAAAA
RNA 2: AGAGAUAA
modifications: LNA-m7G cap on both 5' ends; second strand 3'-azide clicked to 5-octadiynyl-dU at position 8 of first strand
Kd (eIF4E; label: AF647-cytidine, branched): 1.28 µM
